EC50, IC50 and outcome data for 71 molecules are collected here from PubChem BioAssay AID179 (DTP/NCI, 2004).

SMILES strings stand for the structures. Activity calls are given as the source filed them.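 The calls were made as follows: active = compounds giving half or more protection of infected cells from virus-caused growth loss, again on retest; inactive = the rest.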 *1 amine or outer side, *2 acyl side, *3 side chain or, on linkers, in order; H or OH if unused. Where a SMILES comes first, the peptide text is derived from it. Bridges are numbered along the chain shown (N, C = ends). [ ]: non-standard residue; d: D form. The star is where a group is joined. ξ: configuration not given here. Fmoc = O=C(OCC1c2ccccc2-c2ccccc21)*; X2 = O=C(C(CCCCNO[*:3])N[*:1])[*:2]; ξW = NC(Cc1c[nH]c2ccccc12)C(=O)O; ξP = O=C(O)C1CCCN1 Bounds are passed on as bounds.

The term EC50 denotes the midpoint of the concentration-response curve. The IC50 is the point on the concentration scale where inhibition reaches its midpoint.

This assay relates to CEM cells HIV-1 protection, formazan growth assay. Description: NCI AIDS Antiviral Assay. The note with it: for IC50: measured here: growth of uninfected CEM cells. In a few lines: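 CEM (human) cells, HIV-1 infected vs uninfected, 5-point dosing, formazan growth read-out. Retest threshold 50% protection.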

As to `C[C@H](CSC(=O)c1ccccc1)C(=O)N1c2ccccc2C[C@H]1C(=O)O`, the EC50 is above 200 µM and the IC50 came to 107 µM. The like results for `O=[N+]([O-])C1=Cc2cc(Cl)ccc2OC1c1cccc2ccccc12` (centres undefined) were, in that order, above 2 µM and 0.977 µM.

Turning to `COC(=O)[C@]12CSCN1C(=O)C(C(C)=O)=NN2C(=O)[C@](OC)(c1ccccc1)C(F)(F)F`, the EC50 is above 200 µM and the IC50 was above 200 µM. On to `Cc1ccnn1CCc1ccc(Cl)cc1Cl`, for which the EC50 was above 200 µM and the IC50 was determined as 95.5 µM.

In the case of `O=CC12CCCN1CCC2`, the EC50 is above 200 µM and the IC50 was above 200 µM. Take `COC(=O)C(=O)C1(CCC(C)=O)c2ccccc2-c2ccccc21`: the result was inactive. As to `COC(=O)C(=O)C1CCCCC(C2=NC3NN=C(N)N3C2=O)C1=O` (centres undefined), the EC50 was above 21.4 µM and the IC50 was above 21.4 µM.

With `N#C/C(=C\c1ccc([N+](=O)[O-])cc1)c1ccccc1`, the EC50 is above 11 µM and the IC50 was above 11 µM. As to `Cc1nc(N)nc(CCC(=O)Nc2cccc(C(F)(F)F)c2)c1-c1ccc(Cl)cc1`, the EC50 was above 302 µM and the IC50 was above 302 µM.

For the molecule `CN1C(=O)[C@@H]2N(N(C)C1=O)[C@@]1(Br)C(=O)NC(=O)[C@@]21Br`, the EC50 was 102 µM and the IC50 was 148 µM. The like results for `CCOC(=O)c1ccc(-n2[nH]c(=O)ccc2=O)cc1` were, in that order, above 191 µM and above 191 µM. The like results for `CC(C)N1CCC2(CC1)NNc1ncccc1-n1cccc12` were, in that order, above 676 µM and 355 µM.

As for `CC1(C)OCC(CO)(CO)CO1`, the EC50 was above 1410 µM and the IC50 is above 1410 µM.

In the case of `COc1cc(-c2ccc(Nc3ccccc3C(=O)O)c(OC)c2)ccc1Nc1ccccc1C(=O)O`, the EC50 was above 200 µM and the half-maximal inhibitory concentration (IC50) stood at 0.692 µM. The like results for `CN1CCn2c(Br)ccc2C1=O` were, in that order, above 1100 µM and 64.6 µM. The like results for `Cc1cc2c(cc1C)[n+]([O-])c(NCCCN(C)C)c(C#N)[n+]2[O-]` were, in that order, above 200 µM and 72.4 µM. The like results for `Cc1c(-c2ccccc2)[nH]n(C2=NCCN2)c1=O` were, in that order, above 200 µM and 120 µM. As for `OC1(c2cccnc2)c2ccccc2Oc2ccccc21`, the EC50 was above 200 µM and the IC50 was 79.4 µM. The like results for `COc1c(OC(C)=O)cc2c(OC(C)=O)c1CC(C)CC(OC)C(O)C(C)/C=C(\C)C(OC(N)=O)C(OC)/C=C\C=C(/C)C(=O)N2` (centres undefined) were, in that order, above 195 µM and 3.02 µM. Turning to `CCOC(=O)c1cn(CC)c2cc3c(cc2c1=O)SCS3`, the outcome was inactive. Turning to `CC1C(C)(C)C23CC12C1(OCCO1)C3Br` (centres undefined), the EC50 is above 200 µM and the IC50 was above 200 µM. Regarding `CN(c1ccccc1)c1nc(=[N+](C)C)ss1`, the outcome was inactive. With `CC(CNC(=O)CCC(N)C(=O)O)C(=O)O` (centres undefined), the result was inactive. With `CCOP(=O)(OCC)C(C)(CC)NC(=O)C(C(F)(F)F)C(F)(F)F` (centres undefined), the EC50 was above 200 µM, the outcome was inactive and the IC50 worked out at 105 µM. With `COC(COC(N)=O)C1=C(N2CC2)C(=O)C(C)=C(N2CC2)C1=O` (centres undefined), the EC50 was above 2 µM and the IC50 turned out to be 0.0166 µM. The like results for `CSc1nc(SC)c2nc(Nc3ccccc3)sc2n1` were, in that order, above 200 µM and 6.17 µM.

With `CC1=NN(C(=O)CC(=O)NC(=O)/C=C\c2ccccc2)C(=O)C1N=Nc1ccc([N+](=O)[O-])cc1` (centres undefined), the result was inactive. Turning to `NC(=O)CNC(=O)C1CCCN1C(=O)C1CCCCNOC(=O)CC[C@@H](NC(=O)OCC2c3ccccc3-c3ccccc32)C(=O)NC(Cc2c[nH]c3ccccc23)C(=O)N1` (some centres undefined) (Fmoc-[dE][ξW][X2][ξP]G-NH2; ester 1-3), the EC50 was above 100 µM and the IC50 was above 100 µM. Turning to `CSC(=Nc1ccccc1Cl)NC(=O)c1ccc(Br)cc1`, the EC50 is above 10.2 µM and the IC50 was above 10.2 µM. Take `COc1ccc(/C=C(\C#N)c2ccc(OC)c(OC)c2)cc1`: the EC50 is above 2 µM and the half-inhibitory concentration (IC50) worked out at 0.257 µM. The like results for `CCN(CC)S(=O)(=O)c1ccc(Nc2nc(Cl)nc(Cl)n2)cc1` were, in that order, above 200 µM and above 200 µM.

As to `NS(=O)(=O)c1cc2c(cc1Cl)NC(CC1CCCC1)NS2(=O)=O` (centres undefined), the EC50 is above 200 µM and the IC50 was above 200 µM. On to `CCCCCCCCc1cc2c(O)c(c1)Cc1cc(CCCCCCCC)cc(c1O)Cc1cc(CCCCCCCC)cc(c1O)Cc1cc(CCCCCCCC)cc(c1O)Cc1cc(CCCCCCCC)cc(c1O)Cc1cc(CCCCCCCC)cc(c1O)C2`, for which the result was inactive. Take `COc1cccc(Nc2nc3c([nH]2)c(=O)n(C)c(=O)n3C)c1`: the EC50 was above 170 µM and the half-maximal inhibitory concentration (IC50) came out at 89.1 µM. Take `Cc1ccc(N=Nc2c(C)nn(C(=O)CC(=O)Nc3ccc(Cl)cc3)c2C)cc1C`: the EC50 is above 200 µM and the IC50 was above 200 µM.

On to `CCOC(=O)c1ncn2c1[nH]c(=S)c1ccccc12`, for which the EC50 was above 26.3 µM and the IC50 is above 26.3 µM. Regarding `CCCCCCOC(=O)c1[nH]c(=O)[nH]c(=O)c1N`, the EC50 is above 200 µM and the IC50 was above 200 µM. `CCCCCCCCCCC[N+]1(Cc2ccccc2)CC2CCN(Cc3ccccc3)CC2C1` (centres undefined): the EC50 was above 2 µM and the IC50 turned out to be 0.234 µM.

For `CC(C)(CC#N)c1cc(CC(C)(C)c2cc(CC(C)(C)c3cc(C(C)(C)C4(C)OCCO4)no3)no2)no1`, the EC50 was above 200 µM and the IC50 turned out to be 60.3 µM. Turning to `Cc1[nH]c2ccccc2c1C1Cc2ccccc2N1` (centres undefined), the outcome was inactive. With `Nc1ccn(C2CSC(CO)O2)c(=O)n1` (centres undefined), the EC50 was 0.145 µM and the IC50 is 10 µM.

As for `CCOc1cnc([C@H]2CCC3[C@@H]4CC=C5C[C@@H](O)CC[C@]5(C)C4CC[C@@]32C)s1` (some centres undefined), the EC50 is above 61.7 µM and the IC50 is above 61.7 µM.

On to `C=Cc1ccc(C)[n+](C[Si](C)(C)O[Si](C)(C)C[n+]2cc(C=C)ccc2C)c1`, for which the EC50 was above 380 µM and the IC50 is 245 µM.

For `COc1cc2oc(-c3ccc4c(c3)OCO4)c(OC)c(=O)c2c(O)c1OC`, the EC50 was above 100 µM and the concentration for half-maximal inhibition (IC50) is above 100 µM. Consider `FC(F)(F)/C(=N/Nc1ccccc1)SS/C(=N\Nc1ccccc1)C(F)(F)F`, for which the EC50 was above 200 µM and the IC50 was 38 µM.

Consider `C[n+]1ccc(-c2c3nc(c(-c4cc[n+](C)cc4)c4ccc([n-]4)c(-c4cc[n+](C)cc4)c4nc(c(-c5cc[n+](C)cc5)c5ccc2[n-]5)C=C4)C=C3)cc1.[I-].[Zn+2]`, for which the EC50 is above 72.4 µM and the IC50 is 14.1 µM.

On to `Cc1nn(C(=O)c2ccccc2O)c2c1C(c1ccccc1)SC(N)=N2` (centres undefined), for which the EC50 is above 2 µM and the IC50 is 0.417 µM.

Take `COc1ccc(N=Nc2ccc3oc(=O)c(C(=O)Nc4ccccc4)cc3c2)cc1`: the EC50 is above 200 µM and the IC50 was found to be 33.1 µM.

Regarding `CNC(=O)Oc1cccc(CN(C)C)c1`, the EC50 was above 200 µM and the IC50 was above 200 µM. With `NN1CCc2ccccc2C1`, the EC50 was above 200 µM and the IC50 is above 200 µM.

Regarding `COc1cc2c(cc1OC)C(=O)/C(=C/c1ccc([N+](=O)[O-])cc1)CC2`, the EC50 was 155 µM and the half-maximal inhibitory concentration (IC50) is above 200 µM.

Turning to `Clc1ccc(/C=N\N2CCCCCC2)cc1Cl`, the EC50 is above 200 µM and the IC50 was determined as 35.5 µM. The like results for `O=c1oc2ccccc2c2nc3cc(Cl)c(F)cc3cc12` were, in that order, above 25.1 µM and above 25.1 µM. The like results for `C#CCN(CC#C)C(=O)C(=O)c1c[nH]c2ccc(OC)cc12` were, in that order, above 200 µM and 40.7 µM. The like results for `O=S(=O)(NCCSSCCNS(=O)(=O)c1cccs1)c1cccs1` were, in that order, above 200 µM and 20 µM.

In the case of `CCOC(=O)c1c(N2CCOCC2)[nH]c(=O)c(C(c2c(O)c(C(=O)OCC)c(N3CCOCC3)[nH]c2=O)C(C)C)c1O`, the EC50 was above 200 µM and the IC50 was above 200 µM. For the molecule `CC(NC(=O)C(N)Cc1ccc(O)cn1)C(=O)O` (centres undefined), the EC50 is above 200 µM and the IC50 is above 200 µM. Regarding `COC(=O)C(N)CSSCC(N)C(=O)OC` (centres undefined), the EC50 was above 324 µM and the IC50 is 123 µM.

With `CC(=O)OC[C@@H]1[C@H]2CC(=O)O[C@H]2C[C@H]1OC(C)=O`, the outcome was inactive.

As to `Oc1ccc(Cn2c(-c3ccc(O)cc3)nc3ccccc32)cc1`, the EC50 was above 794 µM and the IC50 was above 794 µM. Consider `COc1ccc(NC(=O)C(=O)NNC(=O)c2sc(NNC(C)=O)nc2C)c([N+](=O)[O-])c1`, for which the EC50 is above 30.2 µM and the IC50 is above 30.2 µM.

In the case of `CCOC(=S)NP(=O)(NC(=S)OCC)NC(=S)OCC`, the EC50 was above 200 µM and the IC50 is above 200 µM. As for `O=c1c2cc(S(=O)(=O)Nc3ccccc3)ccc2ncn1NS(=O)(=O)c1ccccc1`, the EC50 is above 100 µM and the IC50 amounted to 58.9 µM. The like results for `COc1ccc(N=Nc2ccc3oc(=O)c(C(=O)Nc4ccc(Cl)cc4)cc3c2)cc1` were, in that order, above 200 µM and 33.1 µM. The like results for `O=C(Nc1ccc(Cl)cc1)C(=O)C(C(=O)c1ccccc1-c1ccccc1)C1OC(=O)c2ccccc21` (centres undefined) were, in that order, above 70.8 µM and 13.2 µM. The like results for `Cc1nnc(SCC2=C(C(=O)O)N3C(=O)C(NC(=O)Cn4cc(Cl)c(=O)c(Cl)c4)C3SC2)s1` (centres undefined) were, in that order, above 200 µM and above 200 µM.

For the molecule `COc1c(C)c2c(c(C)c1Cl)Oc1c(C=O)c(O)c(Cl)c(C)c1C(=O)O2`, the EC50 is above 18.2 µM and the IC50 is above 18.2 µM. Regarding `C[n+]1c2ccccc2c(/C=N\NS(=O)(=O)c2ccc(O)c(C(=O)O)c2)c2ccccc21`, the result was inactive. In the case of `Oc1ccc(Nc2ccccc2)cc1`, the EC50 is above 141 µM and the IC50 is 24.5 µM. The like results for `CCN=C(N)Nc1ccccc1` were, in that order, above 200 µM and 132 µM. On to `O=C1c2cnccc2Cc2cccc3c2N1c1ccccc1S3`, for which the EC50 was above 22.9 µM and the half-maximal inhibitory concentration (IC50) was above 22.9 µM.
